Source: PMC2394794 (Journal of Synchrotron Radiation, 2008)
Where two headings read alike, the source gives them in different places.

Legend:
[1] = target: T1, HCV NS3/4A protease (Hepatitis C virus genotype 1a, UniProt P27958); settings: experimental over predicted relative Ki*
[2] = target: T1, HCV NS3/4A protease; test: Inhibition of HCV NS3/4A protease by ketoamide inhibitors; format: biochemical; settings: P2 = DMCP versus P2 = Leu

T1 sequence (P27958 1658-1711): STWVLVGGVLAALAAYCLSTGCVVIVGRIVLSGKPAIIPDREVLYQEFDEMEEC
T1 sequence (P27958 1027-1208): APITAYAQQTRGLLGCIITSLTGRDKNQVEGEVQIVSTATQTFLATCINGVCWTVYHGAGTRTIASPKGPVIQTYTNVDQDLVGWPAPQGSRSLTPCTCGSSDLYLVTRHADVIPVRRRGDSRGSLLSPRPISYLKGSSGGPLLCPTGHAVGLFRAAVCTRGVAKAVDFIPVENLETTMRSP

In the case of `CC(C)(C)NC(=O)N[C@H](C(=O)N1C[C@H]2[C@@H]([C@H]1C(=O)NC(CC1CCC1)C(=O)C(N)=O)C2(C)C)C(C)(C)C` (stereo partly drawn) [Compd 9, ^tBu–urea–t-Bug–DMCP–c-Bua–CONH2], the “Ki* ratio exp./SA” value ([1]; P2 series) is reported as 4.1, the “Ki* ratio exp./SA” value ([1]; P3 series) is reported as 9.0 and the “increase in potency relative to Leu” value [2] is reported as 70 fold.
